In ChEMBL document CHEMBL1155667, “A cytotoxic 5alpha,8alpha-epidioxysterol from a soft coral Sinularia species” (2000):
≈ marks a conversion by molar mass, not a printed value.

Columns and labels:
Format in all cases: functional
Settings in all cases: read-out: ED50 (the source's name)
A549 = assay: Cytotoxicity against human A549 cells by modified MTT assay
KB = assay: Cytotoxicity against human KB cells by modified MTT assay
P388 = assay: Cytotoxicity against mouse P388 cells by modified MTT assay
HT-29 = assay: Cytotoxicity against human HT29 cells by modified MTT assay

Compound | EC50 (A549) [µg/mL] | EC50 (KB) [µg/mL] | EC50 (P388) [µg/mL] | EC50 (HT-29) [µg/mL]
C=C(CC[C@@H](C)[C@H]1CC[C@H]2[C@@H]3C[C@@H](O)[C@@]4(O)C[C@@H](O)C[C@H](O)[C@]4(C)[C@H]3CC[C@]12C)C(C)C | 10.8 (≈ 24.1 µM) | 1.9 (≈ 4.23 µM) | 8.3 (≈ 18.5 µM) | 1.5 (≈ 3.34 µM)
CC(C)[C@@H](C)[C@H]1C[C@@H]1[C@@H](C)[C@H]1CC[C@@H]2[C@]1(C)CC[C@H]1[C@]23C=C[C@]2(C[C@@H](O)CC[C@]12C)OO3 | 2.7 (≈ 6.1 µM) | 2.1 (≈ 4.74 µM) | 0.4 (≈ 0.904 µM) | 1.4 (≈ 3.16 µM)
CC(=O)[C@H]1CC[C@H]2[C@@H]3CC=C4C[C@@H](O)CC[C@]4(C)[C@H]3CC[C@]12C [PREGNENOLONE] | 8.6 (≈ 27.2 µM) | > 50 | 7.8 (≈ 24.6 µM) | 0.7 (≈ 2.21 µM)
